The source of these data is patent publication US20090253131A1, “HYBRID FUSION REPORTER AND USES THEREOF” (Promega Corporation, priority 2007, published 2009).

The target in one assay is DhaA.H272F (Rhodococcus rhodochrous, UniProt P0A3G2, H272F). Kind of assay: Binding of labeled chloroalkane substrates to DhaA.H272F. An excerpt: (§1) Carboxytetramethylrhodamine-C10H21NO2—Cl, carboxyfluorescein-C10H21NO2—Cl, and 5-carboxy-X-rhodamine-C10H21NO2—Cl bound to DhaA.H272F but not to DhaA.WT. Biotin-C10H21NO2—Cl bound to DhaA.H272F but not to DhaA.WT.
The next assay addresses DhaA.WT (Rhodococcus rhodochrous, UniProt P0A3G2). Put plainly: Binding of labeled chloroalkane substrates to wild type DhaA.
From the text: as §1

For the next assay, the target named is streptavidin (Streptomyces avidinii, UniProt P22629). As to conditions: surface plasmon resonance; cited from earlier work.
The target in assay [1] is cyclic AMP dependent protein kinase catalytic subunit (Homo sapiens, UniProt P17612). To be noted: cited from earlier work.
The target of assay [2] is catalytic subunit of protein kinase A (Homo sapiens, UniProt P17612). To be noted: cited from earlier work.

For 5-carboxy-X-rhodamine-C10H21NO2—Cl, at DhaA.H272F, the “binding to DhaA.H272F” value is “bound”. In addition, the “binding to DhaA.WT” value on DhaA.WT is “not”.
For `O=C(CCCC[C@@H]1SC[C@@H]2NC(=O)N[C@@H]21)NCCOCCOCCCCCCCl` [Biotin-C10H21NO2—Cl], the “binding to DhaA.H272F” value at DhaA.H272F is recorded as “bound”. Also, at DhaA.WT, the “binding to DhaA.WT” value is on record as “not”.
On to `O=C(O)CCCC[C@@H]1SC[C@@H]2NC(=O)N[C@@H]21` [biotin], for which the “on-rate for biotin-streptavidin interaction” value on streptavidin was 5e+06 M⁻¹ s⁻¹.
For `O=C(NCCOCCOCCCCCCCl)c1ccc(-c2c3ccc(=O)cc-3oc3cc(O)ccc23)c(C(=O)O)c1` [carboxyfluorescein-C10H21NO2—Cl], the “binding to DhaA.H272F” value at DhaA.H272F was “bound”. Further, the “binding to DhaA.WT” value on DhaA.WT is on record as “not”.
The matching figures for “Carboxytetramethylrhodamine-C10H21NO2—Cl”: “bound” and “not”.
Regarding LRRASLG, the “reduction of activity on addition of kinase catalytic subunit” value in assay [1] is 30%.
Take “RRFS: Photinus pyralis luciferase with valine 217 mutated to arginine generating site RRFS (Sala-Newby et al.)”: in assay [2], the “decrease of activity when phosphorylated” value was “up to 80%”.
